In US7625887B2, “Receptor agonists” (Takeda Pharmaceutical Company Limited, priority 2003, dated 2009):

Assays:
NCI-H716 cells [1] = experiment: intracellular cAMP production increasing action in NCI-H716 cells; assay type: cell-based, human; details: 10 μM, 2 hrs; production amount in TLCA (50 μM) was 100%; Base 11
Description: NCI-H716 (ATCC) was suspended in a medium (Dulbecco's Modified Eagle Medium (DMEM, Invitrogen) supplemented with 10% fetal bovine serum (Invitrogen), 100 U/ml penicillin and 100 μg/ml streptomycin), seeded in a 96 well plate, cultured for 2 days and used for cAMP production assay. As a cAMP assay buffer, modified Krebs-Ringer bicarbonate buffer (KRBH, 116 mM NaCl, 4.7 mM KCl, 1.2 mM KH2PO4, 1.2 MM MgSO4, 2.5 mM CaCl2, 25 mM NaHCO3, 24 mM HEPES pH 7.3), supplemented with glucose 5.5 mM, bovine serum albumin (BSA) 0.1%, and 3-isobutyl-1-methylxanthine (IBMX, Sigma) 1 mM, was used. The cells were washed once with cAMP assay buffer. Bile acids (50 μM) diluted with cAMP assay buffer or the compounds of the present invention (10 μM) were added thereto and the cells were incubated for 2 hrs. The culture supernatant was discarded, and the cAMP production amount was measured by cAMP Screen System (ABI). In the Table, Base means non-addition of a test compound.

NCI-H716 cells [2] = experiment: GLP-1 secretion from NCI-H716 cell line; assay type: cell-based, human; details: 5 μM, 2 hrs; secretion amount in Base was 100%
Description: NCI-H716 cells secrete Glucagon-like peptide-1 (GLP-1). GLP-1 is a peptide useful for controlling blood glucose level because it acts on the pancreas to cause secretion of insulin and the like. In the same manner as in Experimental Example 9, NCI-H716 (ATCC) was seeded in a 96 well plate and, after incubation for 2 days, used for the following secretion test. As a buffer for secretion test, modified Krebs-Ringer bicarbonate buffer (KRBH, 116 mM NaCl, 4.7 mM KCl, 1.2 mM KH2PO4, 1.2 mM MgSO4, 2.5 mM CaCl2, 25 mM NaHCO3, 24 mM HEPES, pH 7.3) supplemented with glucose 5.5 mM and BSA 0.1% was used. The cells were washed once with the buffer for secretion test, preincubated at 37° C. under 5% CO2, bile acid diluted with the buffer for secretion test was added and the cells were cultured at 37° C. under 5% CO2 for 2 hrs. The cell culture supernatant was collected, cryopreserved and the GLP-1 content in the supernatant was measured using a GLP-1 measurement EIA kit (Linco) The results are shown in Table 9. In the Table, Base means non-addition of a test compound.

guinea pig TGR5 = experiment: cAMP production increasing activity in guinea pig TGR5 expressing CHO cells; assay type: cell-based; details: test compound 2 μM; 10 μM lithocholic acid = 100%; average of 3 groups
[3] = system: guinea pig peripheral blood mononuclear cells; experiment: TNF secretion in LPS-stimulated guinea pig peripheral blood mononuclear cells; assay type: cell-based; details: 16 hrs, test compound 10 μM; non-addition: 160 with LPS, 13 without
Description: (§1) The peripheral blood was taken from guinea pig, and mononuclear cell fraction was obtained by a density separation method using Ficoll-Paque PLUS (Amersham Pharmacia). The fraction at a concentration of 1×10^5/well was cultured for 16 hrs in the presence of […] LPS in a 96-well plate upon addition of bile acid or a test compound. The culture supernatant was collected and TNF and IL-6 in the supernatant were quantitated.
The TNF secretion amount in the culture supernatant was measured in the same manner as in Experimental Example 7.

[4] = system: guinea pig peripheral blood mononuclear cells; experiment: IL-6 secretion in LPS-stimulated guinea pig peripheral blood mononuclear cells; assay type: cell-based; details: 16 hrs, test compound 10 μM; non-addition: 520 with LPS, 32 without
Description: as §1
The quantitation of IL-6 in the culture supernatant was performed using IL-6 dependent cell line 7TD1 (RIKEN Institute) with its growth promoting action as an index. First, 7TD1 cells were suspended in a basic medium (RPMI1640 (Invitrogen) supplemented with 1% non-essential amino acid (Invitrogen) and 55 μM 2-mercaptoethanol (Invitrogen)) and seeded in a 96-well plate at a concentration of 2×10^3/well. Immediately after seeding, peripheral blood mononuclear cell culture supernatant diluted with a dilution medium (the above-mentioned basic medium supplemented with 10% FBS) was added and the cells were cultured for 2 days. The IL-6 content was determined by measuring the growth of the 7TD1 cells in the obtained culture product using a CellTiter-Glo (Promega). As the standard sample, human recombinant IL-6 (Genzyme) was used.

[5] = system: guinea pig intestine primary culture cells; experiment: GLP-1 secretion from guinea pig intestine primary culture cells; assay type: cell-based; details: test compound 10 μM, 90 min
Description: Colon mucous membrane of guinea pig (Hartley, male, Charles River Japan, Inc.) was removed and subjected to an enzyme treatment to give a cell dispersion according to the following method.
The enzyme solution used was obtained by dissolving 5 mg/ml Collagenase (Sigma), 5 mg/ml Hyaluronidase (Sigma) and 0.5 mg/ml DNaseI (Sigma) in a medium. The medium used was Dulbecco's Modified Eagle Medium (DMEM, Invitrogen) supplemented with 4.5 g/l Glucose, 5% FBS (Invitrogen), 100 units/ml Penicillin (Invitrogen), 100 μg/ml Streptomycin (Invitrogen), 50 μg/ml Gentamicin (Invitrogen) and 20 mM Hepes (pH 7.3). After digestion by the enzyme solution at 37° C., the tissue sections were prepared into dispersed cells by passing through a pipette 4 times and the cells were collected. The collected cells were washed with a buffer (incubation buffer) obtained by adding 5.5 mM Glucose and 0.1% BSA to a modified Krebs-Ringer bicarbonate buffer (KRBH, 116 mM NaCl, 4.7 mM KCl, 1.2 mM KH2PO4, 1.2 MM MgSO4, 2.5 mM CaCl2, 25 mM NaHCO3, 24 mM HEPES, pH 7.3), and preincubated at 37° C. under 5% CO2 for 30 min. 0.1 μM Phorbol ester (Wako), 1% DPPIV inhibitor (Linco) and a test compound were added to the above-mentioned incubation buffer, and the obtained buffer was added to the cells after the aforementioned preincubation and incubated for 90 min. The culture supernatant was collected and cryopreserved. The concentration of GLP-1 released in the culture supernatant was measured using an ELISA kit (Linco).

human TGR5 = biological target: T1, human TGR5 (Homo sapiens, UniProt Q8TDU6); experiment: cAMP production increasing activity in human TGR5 expressing CHO cells; assay type: cell-based; details: read-out: EC50 value (concentration necessary to make the cAMP production amount 50%)
T1 construct: expressed in transfected cells; host or cells: CHO cells
T1 sequence (Q8TDU6 1-330): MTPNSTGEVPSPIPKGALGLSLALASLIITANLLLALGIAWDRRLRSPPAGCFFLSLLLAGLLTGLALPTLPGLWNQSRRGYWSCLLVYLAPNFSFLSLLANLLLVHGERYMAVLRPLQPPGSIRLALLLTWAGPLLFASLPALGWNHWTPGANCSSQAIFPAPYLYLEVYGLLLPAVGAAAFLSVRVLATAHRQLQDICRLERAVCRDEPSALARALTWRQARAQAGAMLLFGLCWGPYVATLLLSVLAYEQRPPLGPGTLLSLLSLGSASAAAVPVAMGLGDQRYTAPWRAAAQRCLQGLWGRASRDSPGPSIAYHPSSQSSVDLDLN

SMILES	cAMP production increasing activity (%) (NCI-H716 cells [1])	GLP-1 secretion increase (%) (NCI-H716 cells [2])	cAMP producing activity (control %) (guinea pig TGR5)	TNF α [3]	IL-6 [4]	GLP-1 (% relative to non-addition) [5]	EC50 (human TGR5)
O=S(=O)(c1cc(C(F)(F)F)cc(C(F)(F)F)c1)N1CCOc2nccc(-c3ccccc3)c2C1 [Example 22C, 4-{[3,5-bis(trifluoromethyl)phenyl]sulfonyl}-6-phenyl-2,3,4,5-tetrahydropyrido[3,2-f][1,4]oxazepine]	100%	127%	101 control %	66 pg/mL	170 pg/mL	313 % relative to non-addition	–
CC(=O)NCc1cccc(C2OC(CC(=O)NCc3ccccc3C(F)(F)F)C(=O)N(CC(C)(C)C)c3ccc(Cl)cc32)c1 (stereo not drawn) [Example 14, 2-[3,5-trans-5-[3-(acetylaminomethyl)phenyl]-7-chloro-1-neopentyl-2-oxo-1,2,3,5-tetrahydro-4,1-benzoxazepin-3-yl]-N-[2-(trifluoromethyl)benzyl]acetamide]	104%	157%	76 control %	83 pg/mL	260 pg/mL	167 % relative to non-addition	< 100 nM
